The values that follow come from US20190185518A9, “WARHEAD-CONTAINING PEPTIDOMIMETIC MACROCYCLES AS MODULATORS OF BFL-1” (AILERON Therapeutics, Inc., priority 2017, published 2019).

Positions of bridges follow the written chain, without caps; N, C: chain ends. Non-standard residues stand in square brackets, D forms with d. Residues, ends and D or L forms follow the SMILES beside them. Phe(4-CF3) = N[C@@H](Cc1ccc(C(F)(F)F)cc1)C(=O)O; Phe(4-tBu) = CC(C)(C)c1ccc(C[C@H](N)C(=O)O)cc1; Phe(4-F) = N[C@@H](Cc1ccc(F)cc1)C(=O)O; Igl = N[C@H](C(=O)O)C1Cc2ccccc2C1; R8 = C=CCCCCCC[C@@](C)(N)C(=O)O; Cha = N[C@@H](CC1CCCCC1)C(=O)O; αMeL = CC(C)C[C@](C)(N)C(=O)O; hLeu = CC(C)CC[C@H](N)C(=O)O; S5 = C=CCCC[C@](C)(N)C(=O)O; Aib = CC(C)(N)C(=O)O

In one experiment the target is Bcl-2 (Homo sapiens, UniProt P10415). Kind of experiment: Ki determination for Bcl-2 (BCL-2 family binding spectrum). The following applies: read-out: Ki BCL-2. The source says: (§1) To assess the binding and affinity of compounds that antagonize the interaction between a peptide and an acceptor protein, a fluorescence polarization assay (FPA) utilizing a fluoresceinated peptidomimetic macrocycle derived from a peptidomimetic precursor sequence is used, for example. The FPA technique measures the molecular orientation and mobility using polarized light and fluorescent tracer. […] A compound that antagonizes the interaction between the fluoresceinated peptidomimetic macrocycle and an acceptor protein will be detected in a competitive binding FPA experiment.
Sequence of Bcl-2 (P10415 whole entry, species assumed): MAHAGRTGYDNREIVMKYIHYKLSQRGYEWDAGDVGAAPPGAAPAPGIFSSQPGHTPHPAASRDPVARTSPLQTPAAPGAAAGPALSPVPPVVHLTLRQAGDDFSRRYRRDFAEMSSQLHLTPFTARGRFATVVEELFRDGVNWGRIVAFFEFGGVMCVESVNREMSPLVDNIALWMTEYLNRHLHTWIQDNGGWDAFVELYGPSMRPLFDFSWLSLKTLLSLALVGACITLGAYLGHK
(§2) For example, putative antagonist compounds (1 nM to 1 mM) and a fluoresceinated peptidomimetic macrocycle (25 nM) are incubated with the acceptor protein (50 nM) in binding buffer (140 mM NaCl, 50 mM Tris-HCL, pH 7.4) for 30 minutes at room temperature. Antagonist binding activity is measured, for example, by fluorescence polarization on a luminescence spectrophotometer (e.g. Perkin-Elmer LS50B). Kd values may be determined by nonlinear regression analysis using, for example, Graphpad Prism software (GraphPad Software, Inc., San Diego, Calif.).

The target in a further experiment is Mcl-1 (Homo sapiens, UniProt Q07820). The experiment in a line: Ki determination for Mcl-1 (BCL-2 family binding spectrum). The settings on record: read-out: Ki MCL-1. In a few lines:
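Binding to Mcl-1 was measured as displacement of a fluorescein-labelled macrocyclic peptidomimetic, read by fluorescence polarization. Constants were fitted by nonlinear regression.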

The target in another experiment is Bcl-xL (Homo sapiens, UniProt Q07817). Kind of experiment: Ki determination for Bcl-xL (BCL-2 family binding spectrum). The settings on record: read-out: Ki BCL-XL.
Sequence of Bcl-xL (Q07817 whole entry, species assumed): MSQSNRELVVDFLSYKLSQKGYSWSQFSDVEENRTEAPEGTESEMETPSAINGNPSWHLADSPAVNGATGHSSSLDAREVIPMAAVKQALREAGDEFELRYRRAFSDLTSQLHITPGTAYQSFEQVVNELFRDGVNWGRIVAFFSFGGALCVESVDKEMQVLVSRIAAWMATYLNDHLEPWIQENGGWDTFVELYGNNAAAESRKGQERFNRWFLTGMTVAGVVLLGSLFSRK
From the text: as §1, §2

Sequence of Mcl-1 (Q07820 whole entry, species assumed): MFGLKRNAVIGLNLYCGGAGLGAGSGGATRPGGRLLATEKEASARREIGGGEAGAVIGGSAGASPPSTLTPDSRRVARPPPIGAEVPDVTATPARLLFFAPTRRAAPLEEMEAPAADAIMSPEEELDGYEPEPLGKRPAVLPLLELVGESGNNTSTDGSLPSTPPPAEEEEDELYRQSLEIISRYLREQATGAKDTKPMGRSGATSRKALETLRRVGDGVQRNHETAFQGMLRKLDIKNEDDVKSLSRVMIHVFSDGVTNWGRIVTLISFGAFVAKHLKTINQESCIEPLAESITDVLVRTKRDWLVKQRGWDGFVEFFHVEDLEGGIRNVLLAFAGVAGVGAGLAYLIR

As for `CC[C@H](C)[C@H](NC(C)=O)C(=O)N[C@@H](Cc1c[nH]c2ccccc12)C(=O)N[C@H](C(=O)N[C@@H](C)C(=O)N[C@@H](CCC(N)=O)C(=O)N[C@@H](CCC(=O)O)C(=O)N[C@@H](CC(C)C)C(=O)N[C@@H](CCCNC(=N)N)C(=O)N[C@]1(C)CCCCCCC=CCCC[C@@](C)(C(=O)N[C@@H](Cc2ccc(O)cc2)C(=O)N[C@@H](Cc2ccc(O)cc2)C(=O)N[C@@H](C)C(=O)N[C@@H](CCCNC(=N)N)C(=O)N[C@@H](CCCNC(=N)N)C(N)=O)NC(=O)[C@H](CC(N)=O)NC(=O)[C@H](Cc2ccccc2)NC(=O)[C@H](CCC(=O)O)NC(=O)[C@H](CC(=O)O)NC(=O)CNC(=O)[C@H]([C@@H](C)CC)NC1=O)[C@@H](C)CC` [compound 1629], the inhibition constant (Ki) at Bcl-2 was determined as 23.5 nM.

Regarding `CC[C@H](C)[C@H](NC(C)=O)C(=O)N[C@@H](Cc1c[nH]c2ccccc12)C(=O)N[C@@H](Cc1ccc(C(C)(C)C)cc1)C(=O)N[C@@H](C)C(=O)N[C@@H](CCC(N)=O)C(=O)N[C@@H](C)C(=O)N[C@@H](CC(C)C)C(=O)N[C@@H](CCCNC(=N)N)C(=O)N[C@]1(C)CCCCCCC=CCCC[C@@](C)(C(=O)N[C@@H](Cc2ccc(O)cc2)C(=O)N[C@@H](Cc2ccc(O)cc2)C(=O)N[C@@H](C)C(N)=O)NC(=O)[C@H](CC(N)=O)NC(=O)[C@H](Cc2ccccc2)NC(=O)[C@H](C)NC(=O)[C@H](CC(=O)O)NC(=O)CNC(=O)[C@H]([C@@H](C)CC)NC1=O` [compound 1684] (Ac-IW[Phe(4-tBu)]AQALR[R8]IGDAFN[S5]YYA-NH2; staple 9-16), the Ki at Bcl-2 is greater than 1000 nM.

As for `CC[C@H](C)[C@H](NC(C)=O)C(=O)N[C@@H](Cc1c[nH]c2ccccc12)C(=O)N[C@H](C(=O)N[C@@H](C)C(=O)N[C@@H](CCC(N)=O)C(=O)N[C@@H](C)C(=O)N[C@@H](CC1CCCCC1)C(=O)N[C@@H](CCCNC(=N)N)C(=O)N[C@]1(C)CCCCCCC=CCCC[C@@](C)(C(=O)N[C@@H](Cc2ccc(O)cc2)C(=O)N[C@@H](Cc2ccc(O)cc2)C(=O)N[C@@H](C)C(N)=O)NC(=O)[C@H](CC(N)=O)NC(=O)[C@H](Cc2ccccc2)NC(=O)[C@H](C)NC(=O)[C@H](CC(=O)O)NC(=O)CNC(=O)[C@H]([C@@H](C)CC)NC1=O)[C@@H](C)CC` [compound 1687] (Ac-IWIAQA[Cha]R[R8]IGDAFN[S5]YYA-NH2; staple 9-16), the Ki on Bcl-2 is greater than 1000 nM.

For the compound `CC[C@H](C)[C@H](NC(C)=O)C(=O)N[C@@H](Cc1c[nH]c2ccccc12)C(=O)N[C@H](C(=O)N[C@@H](C)C(=O)N[C@@H](CCC(N)=O)C(=O)N[C@@H](C)C(=O)N[C@H](C(=O)N[C@@H](CCCNC(=N)N)C(=O)N[C@]1(C)CCCCCC/C=C\CCC[C@@](C)(C(=O)N[C@@H](Cc2ccc(O)cc2)C(=O)N[C@@H](Cc2ccc(O)cc2)C(=O)N[C@@H](C)C(N)=O)NC(=O)[C@H](CC(N)=O)NC(=O)[C@H](Cc2ccccc2)NC(=O)[C@H](C)NC(=O)[C@H](CC(=O)O)NC(=O)CNC(=O)[C@H]([C@@H](C)CC)NC1=O)C1Cc2ccccc2C1)[C@@H](C)CC` [compound 1693] (Ac-IWIAQA[Igl]R[R8]IGDAFN[S5]YYA-NH2; staple (Z) 9-16), the Ki at Bcl-2 was greater than 1000 nM.

Take `CC[C@H](C)[C@H](NC(C)=O)C(=O)N[C@@H](Cc1c[nH]c2ccccc12)C(=O)N[C@H](C(=O)N[C@@H](C)C(=O)N[C@@H](CCC(N)=O)C(=O)N[C@@H](C)C(=O)N[C@@H](Cc1ccc(C(F)(F)F)cc1)C(=O)N[C@@H](CCCNC(=N)N)C(=O)N[C@]1(C)CCCCCCC=CCCC[C@@](C)(C(=O)N[C@@H](Cc2ccc(O)cc2)C(=O)N[C@@H](Cc2ccc(O)cc2)C(=O)N[C@@H](C)C(N)=O)NC(=O)[C@H](CC(N)=O)NC(=O)[C@H](Cc2ccccc2)NC(=O)[C@H](C)NC(=O)[C@H](CC(=O)O)NC(=O)CNC(=O)[C@H]([C@@H](C)CC)NC1=O)[C@@H](C)CC` [compound 1694] (Ac-IWIAQA[Phe(4-CF3)]R[R8]IGDAFN[S5]YYA-NH2; staple 9-16): at Bcl-2, the Ki is greater than 1000 nM.

`CC[C@H](C)[C@H](NC(=O)[C@H](Cc1c[nH]c2ccccc12)NC(=O)[C@](C)(CC(C)C)NC(C)=O)C(=O)N[C@@H](C)C(=O)N[C@@H](CCC(N)=O)C(=O)N[C@@H](C)C(=O)N[C@@H](CC(C)C)C(=O)N[C@@H](CCCNC(=N)N)C(=O)N[C@]1(C)CCCCCCC=CCCC[C@@](C)(C(=O)N[C@@H](Cc2ccc(O)cc2)C(=O)N[C@@H](Cc2ccc(O)cc2)C(=O)N[C@@H](C)C(N)=O)NC(=O)[C@H](CC(N)=O)NC(=O)[C@H](Cc2ccccc2)NC(=O)[C@H](C)NC(=O)[C@H](CC(=O)O)NC(=O)CNC(=O)[C@H]([C@@H](C)CC)NC1=O` [compound 1705] (Ac-[αMeL]WIAQALR[R8]IGDAFN[S5]YYA-NH2; staple 9-16): the Ki was determined as 5.2 nM at Mcl-1 and 8.4 nM on Bcl-xL.

In the case of `CC[C@H](C)[C@H](NC(C)=O)C(=O)N[C@@H](Cc1c[nH]c2ccccc12)C(=O)N[C@H](C(=O)N[C@@H](C)C(=O)N[C@@H](CCC(N)=O)C(=O)N[C@@H](C)C(=O)N[C@@H](CC(C)C)C(=O)N[C@@H](CCCNC(=N)N)C(=O)N[C@]1(C)CCCCCCC=CCCC[C@@](C)(C(=O)N[C@@H](Cc2ccc(O)cc2)C(=O)N[C@@H](Cc2ccc(O)cc2)C(=O)N[C@@H](C)C(N)=O)NC(=O)[C@H](CC(N)=O)NC(=O)[C@H](Cc2ccc(C(C)(C)C)cc2)NC(=O)[C@H](C)NC(=O)[C@H](CC(=O)O)NC(=O)CNC(=O)[C@H]([C@@H](C)CC)NC1=O)[C@@H](C)CC` [compound 1745] (Ac-IWIAQALR[R8]IGDA[Phe(4-tBu)]N[S5]YYA-NH2; staple 9-16), the Ki at Mcl-1 was 21.2 nM; on Bcl-xL it was 154 nM.

As to `CC[C@H](C)[C@H](NC(C)=O)C(=O)N[C@@H](Cc1c[nH]c2ccccc12)C(=O)N[C@H](C(=O)N[C@@H](C)C(=O)N[C@@H](C)C(=O)N[C@@H](C)C(=O)N[C@@H](CC(C)C)C(=O)N[C@@H](CCCNC(=N)N)C(=O)N[C@]1(C)CCCCCCC=CCCC[C@@](C)(C(=O)N[C@@H](Cc2ccc(O)cc2)C(=O)N[C@@H](Cc2ccc(O)cc2)C(=O)N[C@@H](C)C(N)=O)NC(=O)[C@H](Cc2c[nH]cn2)NC(=O)[C@H](Cc2ccccc2)NC(=O)[C@H](C)NC(=O)[C@H](CC(=O)O)NC(=O)CNC(=O)[C@H]([C@@H](C)CC)NC1=O)[C@@H](C)CC` [compound 1752] (Ac-IWIAAALR[R8]IGDAFH[S5]YYA-NH2; staple 9-16), the Ki on Mcl-1 is 8 nM; on Bcl-xL, 36.3 nM.

For `CC[C@H](C)[C@H](NC(C)=O)C(=O)N[C@@H](Cc1c[nH]c2ccccc12)C(=O)N[C@H](C(=O)N[C@@H](C)C(=O)N[C@@H](CCC(N)=O)C(=O)N[C@@H](C)C(=O)N[C@@H](CC(C)C)C(=O)N[C@@H](CCCNC(=N)N)C(=O)N[C@]1(C)CCCCCCC=CCCC[C@@](C)(C(=O)N[C@@H](Cc2ccc(O)cc2)C(=O)N[C@@H](Cc2ccc(O)cc2)C(=O)NC(C)(C)C(N)=O)NC(=O)[C@H](CC(N)=O)NC(=O)[C@H](Cc2ccccc2)NC(=O)[C@H](C)NC(=O)[C@H](CC(=O)O)NC(=O)CNC(=O)[C@H]([C@@H](C)CC)NC1=O)[C@@H](C)CC` [compound 1770] (Ac-IWIAQALR[R8]IGDAFN[S5]YY[Aib]-NH2; staple 9-16), at Bcl-xL, the Ki is greater than 1000 nM.

On to `CC[C@H](C)[C@H](NC(C)=O)C(=O)N[C@@H](Cc1c[nH]c2ccccc12)C(=O)N[C@H](C(=O)N[C@@H](C)C(=O)N[C@@H](CCC(N)=O)C(=O)N[C@@H](C)C(=O)N[C@@H](CC(C)C)C(=O)N[C@@H](CCCNC(=N)N)C(=O)N[C@]1(C)CCCCCCC=CCCC[C@@](C)(C(=O)N[C@@H](Cc2ccc(O)cc2)C(=O)N[C@@H](Cc2ccc(F)cc2)C(=O)N[C@@H](C)C(N)=O)NC(=O)[C@H](CC(N)=O)NC(=O)[C@H](Cc2ccccc2)NC(=O)[C@H](C)NC(=O)[C@H](CC(=O)O)NC(=O)CNC(=O)[C@H](CCC(C)C)NC1=O)[C@@H](C)CC` [compound 1777] (Ac-IWIAQALR[R8][hLeu]GDAFN[S5]Y[Phe(4-F)]A-NH2; staple 9-16), for which the values for the Ki at Mcl-1 and at Bcl-xL were 27 nM and 13 nM, respectively.

On to `CC[C@H](C)[C@H](NC(=O)[C@H](Cc1c[nH]c2ccccc12)NC(=O)[C@H](C)NC(C)=O)C(=O)N[C@@H](C)C(=O)N[C@@H](C)C(=O)N[C@@H](C)C(=O)N[C@@H](CC(C)C)C(=O)N[C@@H](CCCNC(=N)N)C(=O)N[C@]1(C)CCCCCCC=CCCC[C@@](C)(C(=O)N[C@@H](C)C(=O)N[C@@H](Cc2ccc(F)cc2)C(=O)N[C@@H](C)C(N)=O)NC(=O)[C@H](CC(N)=O)NC(=O)[C@H](Cc2ccccc2)NC(=O)[C@H](C)NC(=O)[C@H](CC(=O)O)NC(=O)CNC(=O)[C@H](CCC(C)C)NC1=O` [compound 1780] (Ac-AWIAAALR[R8][hLeu]GDAFN[S5]A[Phe(4-F)]A-NH2; staple 9-16), for which, on Bcl-xL, the Ki worked out at 9 nM.

For `CC[C@H](C)[C@H](NC(C)=O)C(=O)N[C@@H](Cc1c[nH]c2ccccc12)C(=O)N[C@H](C(=O)N[C@@H](C)C(=O)N[C@@H](CCC(N)=O)C(=O)N[C@@H](C)C(=O)N[C@@H](C)C(=O)N[C@@H](CCCNC(=N)N)C(=O)N[C@]1(C)CCCCCCC=CCCC[C@@](C)(C(=O)N[C@@H](Cc2ccc(F)cc2)C(=O)N[C@@H](Cc2ccc(F)cc2)C(=O)N[C@@H](C)C(N)=O)NC(=O)[C@H](CC(N)=O)NC(=O)[C@H](Cc2ccccc2)NC(=O)[C@H](C)NC(=O)[C@H](CC(=O)O)NC(=O)CNC(=O)[C@H](CCC(C)C)NC1=O)[C@@H](C)CC` [compound 1781] (Ac-IWIAQAAR[R8][hLeu]GDAFN[S5][Phe(4-F)][Phe(4-F)]A-NH2; staple 9-16), the Ki at Mcl-1 and on Bcl-xL was greater than 1000 nM in each case.
